Here are results for 1 molecule from patent US8592466B2, “Methods for treating conditions caused by higher-than-normal dopaminergic activity in basal ganglia” (Neuropill, Inc., priority 2008, dated 2013).

The conditions of data set [1]: cited from earlier work.
A further data set deals with DA release in striatum. In words: [11C]-raclopride PET binding potential. It counts as in vivo, humans. How it is done:
The Positron Emission Tomography (PET) scans were performed at the PET Center of Johns Hopkins University at Johns Hopkins Hospital, Baltimore, Md. During the PET scans three plasma samples of RPR 102681 were obtained from each subject under different dosing to measure RPR 102681 plasma concentration.
Each subject was also studied using Magnetic Resonance Imaging (MRI). Each subject received an individual thermoplastic mask molded to their face to allow for repositioning and stabilizing of the head during the MRI procedure and PET scan later. Marks, which localized the anatomical structures of interest, were placed on the mask following the MRI scan. In particular, each subject received an MRI with a sagittal scout view to localize the anterior commissure-posterior commissure (AC-PC) line to allow standardized positioning across the subjects based on the anatomical landmarks. […]
[^11C]-raclopride PET scans were preformed on days 6, 13, 20 and 27. […] To measure the specific binding of tracer, binding potential (BP) images were generated by a simplified reference model with a linear regression algorithm (Using a reference tissue model with spatial constraint to quantify [^11C] Pittsburgh compound B PET for early diagnosis of Alzheimer's disease, Yun Zhou, Susan M. Resnick, Weiguo Ye, Hong Fan, Daniel P. Holt, William E. Klunk, Chester A. Mathis, Robert Dannals, and Dean F. Wonga, NeuroImage 36 (2007) 298-312). […]
Subjects received PET scans with [^11C]-raclopride at baseline after uneventful completion of screening cocaine infusions and assignment to RPR 102681 or placebo treatment and on the fifth day of each RPR 102681 dose level (days 13, 20 and 27). After six subjects had completed all four PET scans these subjects' PET scan data was analyzed without breaking the blind to determine whether or not the PET scans should have been administered to any additional subjects. […]

For the next data set, the target named is T1, CCK-B receptor (Homo sapiens, UniProt P32239).
T1 sequence (P32239 1-447): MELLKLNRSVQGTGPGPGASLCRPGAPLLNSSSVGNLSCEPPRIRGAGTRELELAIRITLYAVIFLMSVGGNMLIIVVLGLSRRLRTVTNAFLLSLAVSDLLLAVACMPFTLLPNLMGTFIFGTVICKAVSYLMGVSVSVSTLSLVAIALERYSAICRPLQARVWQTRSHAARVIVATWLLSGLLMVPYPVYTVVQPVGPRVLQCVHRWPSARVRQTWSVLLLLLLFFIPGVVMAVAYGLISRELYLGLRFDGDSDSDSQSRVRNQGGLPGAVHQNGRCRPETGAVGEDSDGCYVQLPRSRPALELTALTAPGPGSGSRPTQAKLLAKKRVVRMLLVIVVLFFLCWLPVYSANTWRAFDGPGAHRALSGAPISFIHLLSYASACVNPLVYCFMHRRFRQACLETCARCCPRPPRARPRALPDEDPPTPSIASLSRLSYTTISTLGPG
In words: CCK-B receptor antagonism (statement).

A short description of data set [2]: Phase I cocaine interaction study: 12-lead ECG. It counts as in vivo, humans. How it is done: Changes in ECG readings during saline infusion as compared to those taken during cocaine infusions were also reported.
A 12 Lead ECG was scheduled at Pre-Intake Screening, Intake Screening, Discharge and follow-up all of which are non-infusion days. […] All subjects completed the non-infusion ECG's at baseline and discharge.
To evaluate subjects' responses to cocaine infusion, measurements after cocaine 40 mg infusion were compared to those prior to any infusion (reading at −10 min). Readings at 4 min and 40 min were used when the first infusion was cocaine while readings at 64 min and 100 min were used when the second infusion was cocaine. […] The RPR 102681 group also had decreased RR and QT duration from baseline at 40 min post cocaine infusion on day 15. In the placebo group, some scattered significant decreases from baseline were observed including PR duration at 4 min post cocaine on day 8 and RR duration at 4 min post cocaine on day 8 and 15. […] However, the statistical significance might not hold if multiplicity adjustment was performed in these multiple comparisons.

Data set [3] in a line: Phase I cocaine interaction study: heart rate and blood pressure.

Regarding `CC(C(=O)O)c1cccc(NC(=O)NCC(=O)N2C(C(=O)OC(C)(C)C)CSC2c2ccccc2F)c1` [RPR 102681, (2S)-2-{3-[3-({[(2R,4R)-4-tert-Butoxycarbonyl-2-(2-fluorophenyl)]-3-thiazolidinyl}carbonylmethyl)ureido]phenyl}propionic acid], in data set [1] (first clinical study), the diarrhea is listed as 2 occurrences, the euphoria is reported as 2 occurrences, the headaches is recorded as 3 occurrences and the postural hypotension is 6 occurrences. Moreover, in data set [1] (first clinical study), the somnolence is 3 occurrences. Moreover, in data set [1] (second clinical study), the flatulence is reported as 4 occurrences, the headache is on record as 1 occurrences and the pharyngitis is on record as 4 occurrences. Moreover, the serious adverse events result in data set [1] (two clinical studies in France and two NIH studies) was “no serious adverse events”. Besides, in the data set with DA release in striatum (Dosing Schedule A, caudate nucleus, putamen or ventral striatum), the “change in [11C]-raclopride binding potential (BP)” value is reported as “no statistically significant change”. The “change in [11C]-raclopride binding potential (BP)” value in the data set on DA release in striatum (Dosing Schedule B, dose 60-90 minutes prior to PET scan, caudate nucleus and ventral striatum, P<0.001) is listed as “significantly increased BP”. Besides, the “dopamine release inferred from raclopride binding potential” value in the data set with DA release in striatum (humans, PET brain imaging) was “inhibited dopamine release”. In addition, the CCK-B receptor antagonism result on CCK-B receptor is recorded as “potent CCK-B receptor antagonist”. In data set [2] (cocaine 40 mg infusion), the “PR/RR/QT duration following cocaine infusion vs pre infusion” value is “seemed to decrease” and the “clinical significance of PR/RR/QT changes” value is given as “not clinically significant”. The “pre infusion RR and QT duration vs intake screening” value in data set [2] (days 8, 15, 22, 29) is reported as “No significant difference”. Also, the “pre infusion PR duration vs intake screening” value in data set [2] (days 8, 15, 22, 29, Signed Rank Test) is “significantly longer”. Besides, the “ECG mean values for VR, PR, QT, RR and QRS” value in data set [2] (non-infusion days) is recorded as “within normal range”. Further, the “elevation of DBP after cocaine” value in data set [3] (RPR 800 mg, cocaine 20 mg i.v., P-value=0.093) is listed as “reduces”. Also, the “elevation of HR after cocaine” value in data set [3] (RPR 800 mg, cocaine 40 mg i.v., P-value=0.009) is recorded as “reduces the elevation of HR”. The “elevation of SBP after cocaine” value in data set [3] (RPR 102681 200 mg, cocaine 20 mg i.v., P-value=0.031) was “increased the elevation of SBP”. Besides, the “SBP increase in response to cocaine vs placebo group” value in data set [3] (cocaine 20 mg, GEE model adjusted for baseline, P-value=0.0412) was “significantly greater SBP increase”. The “maximum HR/SBP/DBP changes across RPR 102681 dose conditions” value in data set [3] (pair-wise comparisons within RPR 102681 group, in general) was “does not significantly change HR/SBP/DBP”. For the same molecule, the “HR/SBP/DBP, RPR 102681 vs placebo groups” value in data set [3] (prior to infusions, post saline or post cocaine infusions, any day) was “no statistical difference”.
